pIC50: −log10 of the molar value.
Experiments:
Zmpste24−/− mice = assay: Mouse model of progeria: body fat (Echo MRI), lean muscle, body weight, intrascapular brown fat; assay type: in vivo; conditions: oral gavage QD5 for 56 days
Experimental: Zmpste24 mice, a progeria model mouse line, were dosed with either 50 mg/kg Brivanib alaninate for 56 days, 5 days on, 2 days off (QD5), or vehicle alone. The dose was administered via oral gavage as a suspension of 18% (w/v) PEG400 2% (w/v) Tween-80 in water . The vehicle alone was 18% (w/v) PEG400 2% (w/v) Tween-80 in water.
The body fat of the mice was measured by an Echo MRI throughout the treatment.
Samples of intrascapular brown adipose tissue from 15 week old mice treated with Brivanib Alaninate or vehicle for 56 days underwent Hematoxylin and Eosin (H&E) staining.
Zmpste24−/− mice, a progeria model mouse line, were dosed with either 25 mg/kg SU5402 for 56 days, 5 days on, 2 days off (QD5) or vehicle alone. The dose was administered via oral gavage as a suspension of 5% (w/v) DMSO 9% (w/v) PEG400 1% (w/v) Tween-80 in saline. The vehicle alone was 5% (w/v) DMSO 9% (w/v) PEG400 1% (w/v) Tween-80 in saline.
The body fat of the mice was measured by an Echo […]. Lean muscle and body weight were also measured.
The dose was administered via oral gavage as a suspension of 18% (w/v) PEG400 2% (w/v) Tween-80 in water . The vehicle alone was 18% (w/v) PEG400 2% (w/v) Tween-80 in water.
The body fat of the mice was measured by an Echo MRI. […] There was also no alteration of intrascapular brown adipose tissue mass (FIG. 5D).
The dose was administered via oral gavage as a suspension of 18% (w/v) PEG400 2% (w/v) Tween-80 in water. The vehicle alone was 18% (w/v) PEG400 2% (w/v) Tween-80 in water.
The body fat of the mice was measured by an Echo MM. […] There was also no alteration of intrascapular brown adipose tissue mass (FIG. 6D).
The body fat of the mice was measure by an Echo MRI. […] There was also no alteration of intrascapular brown adipose tissue mass (FIG. 7D). […]

VEGFR2 = VEGFR2 (Homo sapiens, UniProt P35968); conditions: relative IC50: reported IC50 toward VEGFR2 divided by next lowest reported IC50 to any gene target
Sequence of VEGFR2 (P35968 20-1356, species assumed): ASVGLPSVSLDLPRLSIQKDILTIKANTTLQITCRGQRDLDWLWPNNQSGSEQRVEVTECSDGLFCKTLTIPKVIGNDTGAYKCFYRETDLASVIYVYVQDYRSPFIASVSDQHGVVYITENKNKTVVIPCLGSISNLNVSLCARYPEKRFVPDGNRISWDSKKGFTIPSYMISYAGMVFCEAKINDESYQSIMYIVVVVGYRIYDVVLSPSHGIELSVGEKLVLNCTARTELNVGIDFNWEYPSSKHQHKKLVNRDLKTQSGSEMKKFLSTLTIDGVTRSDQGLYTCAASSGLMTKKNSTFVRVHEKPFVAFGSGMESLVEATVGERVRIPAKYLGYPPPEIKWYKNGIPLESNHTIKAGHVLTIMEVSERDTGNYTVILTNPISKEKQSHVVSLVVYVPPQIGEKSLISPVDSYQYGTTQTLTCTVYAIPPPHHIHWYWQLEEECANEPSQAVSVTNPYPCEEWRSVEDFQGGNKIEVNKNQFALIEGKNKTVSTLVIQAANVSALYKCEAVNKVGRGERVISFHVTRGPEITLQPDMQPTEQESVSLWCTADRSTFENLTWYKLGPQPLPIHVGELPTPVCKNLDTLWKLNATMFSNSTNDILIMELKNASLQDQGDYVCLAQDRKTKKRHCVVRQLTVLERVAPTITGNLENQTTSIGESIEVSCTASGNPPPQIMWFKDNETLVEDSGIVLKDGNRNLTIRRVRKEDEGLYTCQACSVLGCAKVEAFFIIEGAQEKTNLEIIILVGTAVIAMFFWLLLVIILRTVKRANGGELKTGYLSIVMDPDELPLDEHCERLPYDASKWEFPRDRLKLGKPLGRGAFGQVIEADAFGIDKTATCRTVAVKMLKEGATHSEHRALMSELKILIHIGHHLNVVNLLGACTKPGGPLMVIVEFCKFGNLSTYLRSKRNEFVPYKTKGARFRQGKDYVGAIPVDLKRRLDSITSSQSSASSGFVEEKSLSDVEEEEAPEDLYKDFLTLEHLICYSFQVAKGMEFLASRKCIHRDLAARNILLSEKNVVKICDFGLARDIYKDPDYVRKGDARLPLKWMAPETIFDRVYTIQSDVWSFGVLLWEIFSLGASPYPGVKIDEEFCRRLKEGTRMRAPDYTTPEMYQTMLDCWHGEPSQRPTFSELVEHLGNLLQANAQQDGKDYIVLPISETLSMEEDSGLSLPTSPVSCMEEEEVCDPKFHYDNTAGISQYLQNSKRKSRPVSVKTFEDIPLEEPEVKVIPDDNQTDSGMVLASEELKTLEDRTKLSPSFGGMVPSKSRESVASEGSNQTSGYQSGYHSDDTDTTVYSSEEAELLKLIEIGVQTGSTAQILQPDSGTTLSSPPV

EPHX2 = target: T1, EPHX2 (Homo sapiens, UniProt P34913); conditions: cited from earlier work
T1 sequence (P34913 1-555): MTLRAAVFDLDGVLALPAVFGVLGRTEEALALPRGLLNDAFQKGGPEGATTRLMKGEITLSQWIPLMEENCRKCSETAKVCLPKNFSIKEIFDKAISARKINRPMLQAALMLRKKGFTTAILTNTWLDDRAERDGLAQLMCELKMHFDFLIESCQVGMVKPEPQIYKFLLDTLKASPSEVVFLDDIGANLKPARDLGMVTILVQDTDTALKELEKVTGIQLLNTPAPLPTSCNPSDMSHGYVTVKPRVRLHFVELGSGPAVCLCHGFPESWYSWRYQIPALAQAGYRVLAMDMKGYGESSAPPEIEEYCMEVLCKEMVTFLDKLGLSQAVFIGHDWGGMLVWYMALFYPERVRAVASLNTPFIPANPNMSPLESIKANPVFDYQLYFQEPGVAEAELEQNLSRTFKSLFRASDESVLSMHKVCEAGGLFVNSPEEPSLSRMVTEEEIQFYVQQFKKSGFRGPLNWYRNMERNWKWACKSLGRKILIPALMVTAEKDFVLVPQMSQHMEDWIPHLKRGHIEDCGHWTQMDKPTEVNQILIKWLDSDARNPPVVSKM

VEGFR2 and FGFR1 = assay: Selection of compounds that selectively inhibit both VEGFR2 and FGFR1 (average relative IC50); assay type: biochemical; conditions: average of VEGFR2 and FGFR1 relative IC50;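 further: relative IC50 is the IC50 for VEGFR2 or FGFR1 divided by the next-lowest IC50 reported against any target gene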
any gene target = conditions: lowest reported IC50 to any gene target; read-out: min IC50; cited from earlier work
FGFR1 = FGFR1 (Homo sapiens, UniProt P11362); conditions: relative IC50: reported IC50 toward FGFR1 divided by next lowest reported IC50 to any gene target
Sequence of FGFR1 (P11362 22-822, species assumed): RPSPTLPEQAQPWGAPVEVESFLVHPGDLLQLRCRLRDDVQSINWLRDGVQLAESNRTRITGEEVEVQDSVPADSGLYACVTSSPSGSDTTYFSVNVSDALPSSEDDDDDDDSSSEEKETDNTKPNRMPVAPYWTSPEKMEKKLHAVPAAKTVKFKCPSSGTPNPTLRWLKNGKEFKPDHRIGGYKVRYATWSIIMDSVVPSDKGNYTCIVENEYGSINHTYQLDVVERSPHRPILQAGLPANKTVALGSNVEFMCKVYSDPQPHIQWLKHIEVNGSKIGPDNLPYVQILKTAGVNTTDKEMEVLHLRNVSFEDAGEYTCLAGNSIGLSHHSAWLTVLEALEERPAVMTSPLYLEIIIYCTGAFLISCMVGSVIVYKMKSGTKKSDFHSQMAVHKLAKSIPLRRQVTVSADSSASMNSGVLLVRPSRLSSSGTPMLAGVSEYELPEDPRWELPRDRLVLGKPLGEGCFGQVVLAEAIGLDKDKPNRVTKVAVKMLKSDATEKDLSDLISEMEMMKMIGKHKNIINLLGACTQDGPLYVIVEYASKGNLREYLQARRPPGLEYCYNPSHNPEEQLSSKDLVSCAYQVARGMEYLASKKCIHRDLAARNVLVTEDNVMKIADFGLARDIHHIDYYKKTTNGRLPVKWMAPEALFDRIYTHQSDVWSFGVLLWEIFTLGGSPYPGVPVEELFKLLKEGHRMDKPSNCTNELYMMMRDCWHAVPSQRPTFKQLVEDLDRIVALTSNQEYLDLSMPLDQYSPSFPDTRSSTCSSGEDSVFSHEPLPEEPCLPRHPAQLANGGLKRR

[1] = Brivanib alaninate 50, SU5402 25, Cediranib maleate 5, Regorafenib 10, infigratinib 5 mg/kg
[2] = SU5402 25, Cediranib maleate 5, Regorafenib 10, infigratinib 5 mg/kg

VEGFR2, rIC50 (VEGFR2): 8.4
FGFR1, rIC50 (FGFR1): 3.0
SMILES: CNC(=O)c1cc(Oc2ccc(NC(=O)Nc3ccc(Cl)c(C(F)(F)F)c3)c(F)c2)ccn1 [compound 11167602, Regorafenib]
Body fat (Echo MRI) vs vehicle (Zmpste24−/− mice; [1]): did not show an increase
Intrascapular brown fat mass (percent of body weight) vs vehicle (Zmpste24−/− mice; [1]): no alteration
Body weight vs vehicle (Zmpste24−/− mice; [2]): did not show an increase
Lean muscle vs vehicle (Zmpste24−/− mice; [2]): did not show an increase
pIC50 (EPHX2): > 8.52
avg rIC50 (VEGFR2 and FGFR1): 5.7
pIC50 (any gene target): 9.00
